Laboratory results reported in paper PMC10363480 (Plant Communications, 2023).

These sequences were tested on mitochondria or chloroplast of Chlamydomonas reinhardtii (assay: Subcellular localization of Venus reporter by epifluorescence microscopy (manual targeting assignment)). Conditions: 15 N-terminal residues of RCA1-cTP added, no C-terminal element; Figure 2.
Type: cell-based
Text: In a bid to keep peptidase recognition sites intact, C-terminal elements were designed to start 10 residues upstream of the cleavage site, even though this slightly truncates TP helices. Peptides carrying the 15-amino-acid cTP N-terminus (cTP-N) will be denoted ^cP. Similarly, peptides with C-terminal elements from RCA1-cTP (cTP-C) or CAG2-mTP (mTP-C) will be denoted P^c or P^m, respectively. Peptide variants are used to drive the subcellular localization of a Venus fluorescent reporter protein, which was assessed using fluorescence microscopy; in Figure 2, an executive overview of observed Venus localization is presented for all constructs. […] Here, we use automated image segmentation to validate our subcellular localization assessment (Supplemental Figure 2, Supplemental text). […] The reader will be asked to return to Figure 2 throughout, with Figures 3 and 4 providing selected micrographs as examples highlighting particular points of interest.
Chlamydomonas TP sequences were amplified from genomic DNA extracted from strain T222+ (CC-5101). Templates for codon-optimized HA-RAMP, RP, and R→K modified TP sequences were obtained by gene synthesis (Eurofins Genomics). Correct assembly was verified by sequencing (Eurofins Genomics). Linear transformation cassettes were generated through restriction digestion with EcoRV (New England Biolabs).
Constructs were transformed into wild-type strain T222+ (CC-5101) using a protocol described previously ([Onishi and Pringle, 2016]), except using 4 μl of DNA at 2 μg/μl.
Strains with suspected mitochondrial targeting were treated with 0.1 μM MitoTracker Red CMXRos (Thermo Fisher Scientific) in growth medium for 30 min in the dark and washed with TAP prior to taking images.
Legend for Fig. S3 – S20. Three independent transformant lines (Strains 1-3) are shown for each combination of modifications (A-L), represented by a cartoon and a shorthand description (cf. Fig.
2). Where a construct was interpreted as generating reporter localization in mitochondria or […]
Epifluorescence microscopy images of typical cells for each strain are shown. MitoTracker fluorescence, false-coloured in cyan, indicates the position of mitochondria (although parts of the cell exterior are sometimes also stained). False-coloured yellow fluorescence from the Venus channel reports on the subcellular localization of the fluorescent reporter. Chlorophyll autofluorescence, shown in magenta, indicates the location of the chloroplast. Scale bars are 5µm. Brightness (Br.) was adjusted for clarity: fluorescence intensity values were restricted to the range shown for each channel by matching coloured rectangles. Intensity scales to 0 at the bottom of the panel, and to 65535 at the top.
On the right-hand side, quantitative information associated with each construct is shown. Data was normalized such that averages range from 0 to 1 across all constructs (cf. Fig S2). Individual cell measurements may exceed this range; for clarity, the range shown here is limited to -0.5 to 1.5, with outliers that have more extreme values shown as lying beyond a dashed line. Strain 1 is plotted as circles, strain 2 as squares, and strain 3 as diamonds. Venus: Fluorescence plate reader data of transformants screened for this construct (Venus fluorescence, accounting for cell density using linear regression of OD750 and chlorophyll fluorescence trained on ‘no venus’ control transformants). Transformants that were not selected after screening are shown as small grey circles. A colour code ranging from white (low Venus fluorescence) to black (high Venus fluorescence) is used for strains 1-3 and the average thereof. Automated image quantification data: pyr/chl: Venus channel signal in the pyrenoid relative to in the chlorophyll region; mt/cell: Venus channel signal in mitochondria relative to the whole cell. Each point corresponds to a single cell.
The colour code code is the same as that below distributions in Fig. S2, i.e. blue highlights the […]

Sequence	mitochondrial targeting upon sole addition of cTP-N (^cP)
GWIRDFGKRIERVGQHTRDATIQTIAVAQQAANVAATLKG [S1D, sarcotoxin-1D, HA-RAMP antimicrobial peptide, reference compound]	enabled mitochondrial targeting

Same assay, conditions: C-terminal element of RCA1-cTP added to the named peptide; Figure 2 rows E and F; bare name = K and R versions

Sequence	chloroplast targeting upon addition of cTP-C (P^c)
GWIRDFGKRIERVGQHTRDATIQTIAVAQQAANVAATLKG [S1D, sarcotoxin-1D, HA-RAMP antimicrobial peptide, reference compound]	enabled chloroplast targeting

Same assay, conditions: Figure 2; bare name = K and R versions

Sequence	targeting when combining cTP-N with mTP-C (^cP^m)
GWIRDFGKRIERVGQHTRDATIQTIAVAQQAANVAATLKG [S1D, sarcotoxin-1D, HA-RAMP antimicrobial peptide, reference compound]	dual targeting

Same assay, conditions: manual targeting assignment of the Venus reporter construct in Chlamydomonas: Neither / Mitochondria / Chloroplast / Dual, (partial) = partial targeting

Sequence	Localisation
MQVTMKSSAVSGQRVSFLTTFRDLAIRAARSAGQSVLSTLSCRLSNTCLTQTAESFRGVSSQFFDAPNGPSVKQVLIEDEW [c.B2I.R.m]	Dual
MQVTMKSSAVSGQRVMLKRVGQSLVPFARAGLTQTAESFRGVSSQFFDAPNGPSVKQVLIEDEW [c.MH.R.m]	Neither
MQVTMKSSAVSGQRVMGLLLDTLRGAARDIAGIALERLRCRITGCRP [c.R2G.R]	Mitochondria
MQVTMKSSAVSGQRVGGARVATR [c.CH.R]	Neither
MQVTMKSSAVSGQKVGGAKVATK [c.CH.K]	Neither
MLKKVGQSLVPFAKAGLTQTAESFKGVSSQFFDAPNGPSVKQVLIEDEW [MH.K.m]	Neither
MQVTMKSSAVSGQRVDEVNNDNCRIRFRGDISSESDRMNINYLTQTAESFRGVSSQFFDAPNGPSVKQVLIEDEW [c.RP2.R.m]	Neither
MLKKVGQSLVPFAKAG [MH.K]	Neither
MSFLTTFRDLAIRAARSAGQSVLSTLSCRLSNTC [B2I.R]	Mitochondria
MALWRTMLRRLGTMALHAGRAAFGAAADTISQLTQTAESFRGVSSQFFDAPNGPSVKQVLIEDEW [DDM.R.m]	Neither
MQVTMKSSAVSGQRVMGLLLDTLRGAARDIAGIALERLRCRITGCRPLTQTAESFRGVSSQFFDAPNGPSVKQVLIEDEW [c.R2G.R.m]	Mitochondria
MQVTMKSSAVSGQRVMGLLLDTLRGAARDIAGIALERLRCRITGCRPSVRRAQLQVVASSRKQMGRWRSIDAGVDASDDQ [c.R2G.R.c]	Dual
MGGAKVATKLTQTAESFRGVSSQFFDAPNGPSVKQVLIEDEW [CH.K.m]	Neither
MQVTMKSSAVSGQRVMGWIRDFGRRIERVGQHTRDATIQTIAVAQQAANVAATLRGSVRRAQLQVVASSRKQMGRWRSIDAGVDASDDQ [c.S1D.R.c]	Chloroplast
MGRIPVRAIRRAGAAIGRGLRAINIASTAHDVYSFFRPRHRRRLTQTAESFRGVSSQFFDAPNGPSVKQVLIEDEW [SIM.R.m]	Neither
MQVTMKSSAVSGQRVLTQTAESFRGVSSQFFDAPNGPSVKQVLIEDEW [c.-.m]	Neither
MQVTMKSSAVSGQRVMGWIRDFGRRIERVGQHTRDATIQTIAVAQQAANVAATLRG [c.S1D.R]	Mitochondria

Same assay, conditions: peptide-Venus reporter construct expressed in Chlamydomonas reinhardtii; manual targeting assignment (Neither / Mitochondria / Chloroplast / Dual; partial = partial targeting)

Sequence	Localisation
MALWMTLLRRVLRAAARAALNAVLVGANA [DS4.R]	Neither
MQVTMKSSAVSGQRVMVNYGNGVSCSRTRCSVNWGIITHQAFRVTSGVASG [c.B15.R]	Chloroplast
MQVTMKSSAVSGQRVALWMTLLKKVLKAAAKAALNAVLVGANALTQTAESFRGVSSQFFDAPNGPSVKQVLIEDEW [c.DS4.K.m]	Neither
MQVTMKSSAVSGQRVMKYYGNGVHCTRSGCSVNWGEAFSAGVHRLANGGNGFWSVRRAQLQVVASSRKQMGRWRSIDAGVDASDDQ [c.LCA.R.c]	Chloroplast
MALWMTLLKKVLKAAAKAALNAVLVGANALTQTAESFRGVSSQFFDAPNGPSVKQVLIEDEW [DS4.K.m]	Neither
MGIGRFLHSARRFGRAFVGEIMNSLTQTAESFRGVSSQFFDAPNGPSVKQVLIEDEW [MII.R.m]	Mitochondria (partial)
MFLPLLAGLAANFLPRIFCRITRRCSVRRAQLQVVASSRKQMGRWRSIDAGVDASDDQ [B1E.R.c]	Neither
MVNYGNGVSCSRTRCSVNWGIITHQAFRVTSGVASGSVRRAQLQVVASSRKQMGRWRSIDAGVDASDDQ [B15.R.c]	Chloroplast
MWLSKTAKKLENSAKKRISEGIAIAIKGGSRSVRRAQLQVVASSRKQMGRWRSIDAGVDASDDQ [CP3.K.c]	Neither
MQVTMKSSAVSGQRVGIGKFLHSAKKFGKAFVGEIMNSSVRRAQLQVVASSRKQMGRWRSIDAGVDASDDQ [c.MII.K.c]	Chloroplast
MKYYGNGVHCTKSGCSVNWGEAFSAGVHRLANGGNGFWLTQTAESFRGVSSQFFDAPNGPSVKQVLIEDEW [LCA.K.m]	Neither
MGLFSRFNRRRIRSGLIRIIRTAGREAGLEALRTGIDVIGCRIRGECSVRRAQLQVVASSRKQMGRWRSIDAGVDASDDQ [E1S.R.c]	Neither
MQVTMKSSAVSGQRVMVNYGNGVSCSKTKCSVNWGIITHQAFRVTSGVASGLTQTAESFRGVSSQFFDAPNGPSVKQVLIEDEW [c.B15.K.m]	Chloroplast
MGIGKFLHSAKKFGKAFVGEIMNSSVRRAQLQVVASSRKQMGRWRSIDAGVDASDDQ [MII.K.c]	Mitochondria
MQVTMKSSAVSGQRVMVNYGNGVSCSRTRCSVNWGIITHQAFRVTSGVASGLTQTAESFRGVSSQFFDAPNGPSVKQVLIEDEW [c.B15.R.m]	Chloroplast
MQVTMKSSAVSGQRVMVNYGNGVSCSKTKCSVNWGIITHQAFRVTSGVASGSVRRAQLQVVASSRKQMGRWRSIDAGVDASDDQ [c.B15.K.c]	Chloroplast
MQVTMKSSAVSGQRVALWMTLLKKVLKAAAKAALNAVLVGANA [c.DS4.K]	Neither

Same assay, conditions: targeting of the Venus reporter fused to the peptide, expressed in Chlamydomonas reinhardtii; manual assignment from epifluorescence microscopy; full or partial

Sequence	Localisation
MGKIPVKAIKKAGAAIGKGLRAINIASTAHDVYSFFKPKHKKKSVRRAQLQVVASSRKQMGRWRSIDAGVDASDDQ [SIM.K.c]	Neither
MQVTMKSSAVSGQRVMSFLTTFKDLAIKAAKSAGQSVLSTLSCKLSNTCLTQTAESFRGVSSQFFDAPNGPSVKQVLIEDEW [c.B2I.K.m]	Mitochondria
MNIVVYWNFTLWHMDINARNAGCDGEGSSVRRAQLQVVASSRKQMGRWRSIDAGVDASDDQ [RP1.K.c]	Neither
MGLLLDTLKGAAKDIAGIALEKLKCKITGCKP [R2G.K]	Neither
MGWIRDFGKRIERVGQHTRDATIQTIAVAQQAANVAATLKG [S1D.K]	Neither
MGKIPVKAIKKAGAAIGKGLRAINIASTAHDVYSFFKPKHKKKLTQTAESFRGVSSQFFDAPNGPSVKQVLIEDEW [SIM.K.m]	Neither
MQVTMKSSAVSGQRVALWMTLLRRVLRAAARAALNAVLVGANASVRRAQLQVVASSRKQMGRWRSIDAGVDASDDQ [c.DS4.R.c]	Neither
MALWKTMLKKLGTMALHAGKAAFGAAADTISQLTQTAESFRGVSSQFFDAPNGPSVKQVLIEDEW [DDM.K.m]	Neither
MGWIRDFGKRIERVGQHTRDATIQTIAVAQQAANVAATLKGLTQTAESFRGVSSQFFDAPNGPSVKQVLIEDEW [S1D.K.m]	Neither
MALWMTLLRRVLRAAARAALNAVLVGANALTQTAESFRGVSSQFFDAPNGPSVKQVLIEDEW [DS4.R.m]	Neither
MQVTMKSSAVSGQRVMGWIRDFGKRIERVGQHTRDATIQTIAVAQQAANVAATLKG [c.S1D.K]	Mitochondria
MQVTMKSSAVSGQRVSVRRAQLQVVASSRKQMGRWRSIDAGVDASDDQ [c.-.c]	Chloroplast (partial)
MDEVNNDNCRIKFKGDISSESDKMNINY [RP2.K]	Neither
MQVTMKSSAVSGQRVDEVNNDNCRIKFKGDISSESDKMNINY [c.RP2.K]	Neither
MQVTMKSSAVSGQRVMALWKTMLKKLGTMALHAGKAAFGAAADTISQSVRRAQLQVVASSRKQMGRWRSIDAGVDASDDQ [c.DDM.K.c]	Chloroplast (partial)
MQVTMKSSAVSGQRVALWMTLLKKVLKAAAKAALNAVLVGANASVRRAQLQVVASSRKQMGRWRSIDAGVDASDDQ [c.DS4.K.c]	Neither
